Test results as given in US8673938B2, “Chemical compounds” (priority 2006, dated 2014).
pIC50: −log10 of the molar value.

Legend:
[1] = target: T1, human 11βHSD1 enzyme (Homo sapiens (Human), UniProt P28845); conditions: for % inhibition of human 11-βHSD: test concentration of 30 μM of compound
Method: (§1) The evaluation of compounds described herein was carried out using a baculovirus expressed N terminal 6-His tagged full length human 11βHSD1 enzyme(*1). […] Inhibitors of 11βHSD1 reduce the conversion of cortisone to cortisol, which is identified by an increase in signal, in the above assay.
(§2) Compounds to be tested were dissolved in dimethyl sulphoxide (DMSO) to 10 mM and diluted further in assay buffer containing 1% DMSO to 10 fold the final assay concentration. Diluted compounds were then plated into black 384 well plates (Matrix, Hudson N.H., USA).
(§3) The assay plates were incubated for 25 minutes at 37° C. after which time the reaction was stopped by the addition of 10 μl of 0.5 mM glycerrhetinic acid plus conjugated cortisol (XL665 or D2). 10 μl of anti-cortisol Cryptate was then added and the plates sealed and incubated for 6 hours at room temperature.

[2] = target: T1, human 11βHSD1 enzyme; experiment: biochemical; conditions: read-out: % inhibition of human 11-βHSD
Method: as §1, §2, §3

T1 sequence (P28845 whole entry): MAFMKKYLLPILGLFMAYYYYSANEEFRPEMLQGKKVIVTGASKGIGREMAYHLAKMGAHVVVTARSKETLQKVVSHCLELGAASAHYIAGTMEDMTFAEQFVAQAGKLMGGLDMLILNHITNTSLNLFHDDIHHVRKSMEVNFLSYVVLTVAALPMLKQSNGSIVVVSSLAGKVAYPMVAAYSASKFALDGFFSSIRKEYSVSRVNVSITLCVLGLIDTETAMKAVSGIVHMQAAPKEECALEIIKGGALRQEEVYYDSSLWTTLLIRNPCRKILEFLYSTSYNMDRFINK

| SMILES | inhibition at 30 µM [2] | % inhibition of human 11-βHSD [1] | other results |
| --- | --- | --- | --- |
| CCCSc1nc(N2CCC[C@H](CC(=O)O)C2)ccc1C(=O)NC1CCCCC1 [Example 1, 2-[(3R)-1-[5-(Cyclohexylcarbamoyl)-6-propylsulfanyl-pyridin-2-yl]-3-piperidyl]acetic acid] | 87% |  | pIC50 [1]: 7.02 |
| O=C(O)C[C@@H]1CCCN(c2ccc(C(=O)N[C@H]3C4CC5CC3C[C@@](O)(C5)C4)c(SCc3ccccc3)n2)C1 [compound 107] |  | 90% |  |
| Cc1nc(N2CCC[C@@H](CC(=O)O)C2)ccc1C(=O)NC1C2CC3CC(C2)CC1C3 (stereo partly shown) [compound 161] |  | 84% |  |
| O=C(O)C[C@@H]1CCCN(c2ccc(C(=O)NC3CCCCC3)c(N3CCCC3)n2)C1 [compound 155] |  | 94% |  |
| O=C(O)C[C@@H]1CCCN(c2ccc(C(=O)NC3C4CC5CC3CC(O)(C5)C4)c(SCCc3ccccc3)n2)C1 (stereo partly shown) [compound 108] |  | 88% |  |
| O=C(O)C[C@@H]1CCCN(c2ccc(C(=O)NC3CCCCC3)c(N3CCOCC3)n2)C1 [compound 156] |  | 78% |  |
| O=C(O)C[C@@H]1CCCN(c2ccc(C(=O)NC3CCCCC3)c(C3CC3)n2)C1 [compound 165] |  | 95% |  |
| Cc1nc(N2CCC[C@@H](CC(=O)O)C2)ccc1C(=O)NC1CCCCC1 [compound 159] |  | 55% |  |
| O=C(O)C[C@@H]1CCCN(c2ccc(C(=O)NC3C4CC5CC(C4)CC3C5)c(C3CC3)n2)C1 (stereo partly shown) [compound 166] |  | 95% |  |
| Cc1nc(N2CCC[C@@H](CC(=O)O)C2)ccc1C(=O)NC12CC3CC(CC(C3)C1)C2 [compound 160] |  | 80% |  |
| O=C(O)C[C@@H]1CCCN(c2ccc(C(=O)NC3C4CC5CC(C4)CC3C5)cn2)C1 (stereo partly drawn) [2-[(3S)-1-[5-(2-adamantylcarbamoyl)pyridin-2-yl]-3-piperidyl]acetic acid] |  |  | 50% inhibition of the enzyme achieved ([1]; repeat assays): achieved 50% inhibition in one assay, but in a subsequent 3 assays did not |
| O=C(O)C[C@@H]1CCCN(c2ccc(C(=O)NC3CCCCC3)cn2)C1 [compound 133] |  | 58% |  |
| O=C(O)C[C@@H]1CCCN(c2ccc(C(=O)N[C@H]3C4CC5CC3C[C@@](O)(C5)C4)c(C3CC3)n2)C1 [compound 167] |  | 95% |  |
| CCCSc1nc(N2CCC[C@@H](CC(=O)O)C2)ccc1C(=O)NC1CCCCC1 [Example 7, 2-[(3S)-1-[5-(cyclohexylcarbamoyl)-6-propylsulfanyl-pyridin-2-yl]-3-piperidyl]acetic acid] | 87% |  | pIC50 [1]: 8.15 |
| O=C(O)CO[C@@H]1CCN(c2ccc(C(=O)NC3C4CC5CC(C4)CC3C5)c(SC3CCCCC3)n2)C1 (stereo partly drawn) [Example 72, 2-[(3R)-1-[5-(2-adamantylcarbamoyl)-6-cyclohexylsulfanyl-pyridin-2-yl]pyrrolidin-3-yl]oxyacetic acid] | 84% |  |  |
| O=C(O)C[C@@H]1CCCN(c2ccc(C(=O)NC3CCCCC3)c(N3CCN(C(=O)OCc4ccccc4)CC3)n2)C1 [compound 150, 2-[(3S)-1-[5-(cyclohexylcarbamoyl)-6-(4-phenylmethoxy-carbonylpiperazin-1-yl)pyridin-2-yl]-3-piperidyl]acetic acid] | 74% |  |  |
| CCCSc1nc(Oc2cccc(C(=O)O)c2)ccc1C(=O)NC1CCCCC1 [Example 13, 3-[5-(cyclohexylcarbamoyl)-6-propylsulfanyl-pyridin-2-yl]oxybenzoic acid] | 94% |  |  |
| CCCSc1nc(N2CCC[C@H](CC(=O)O)C2)ccc1C(=O)N[C@H]1C2CC3CC1C[C@@](O)(C3)C2 [Example 85, 2-[(3R)-1-[5-[[(2r,5s)-5-hydroxy-2-adamantyl]carbamoyl)-6-propylsulfanyl-pyridin-2-yl]-3-piperidyl]acetic acid] | 89% |  |  |
| O=C(O)C[C@@H]1CCCN(c2ccc(C(=O)NC3CCCCC3)c(SCCc3ccccc3)n2)C1 [Example 130, 2-[(3S)-1-[5-(cyclohexylcarbamoyl)-6-phenethylsulfanyl-pyridin-2-yl]-3-piperidyl]acetic acid] | 91% |  |  |
| CCCSc1nc(N2CC[C@H](CC(=O)O)C2)ccc1C(=O)N[C@H]1C2CC3CC1C[C@@](O)(C3)C2 [Example 90, 2-[(3R)-1-[5-[[(2r,5s)-5-hydroxy-2-adamantyl]carbamoyl]-6-propylsulfanyl-pyridin-2-yl]pyrrolidin-3-yl]acetic acid] | 88% |  |  |
| CCCSc1nc(N2CCC(C(=O)O)(C(C)C)CC2)ccc1C(=O)NC1CCCCC1 [Example 35, 4-[5-(cyclohexylcarbamoyl)-6-propylsulfanyl-pyridin-2-yl]-4-propan-2-yl-piperidine-4-carboxylic acid] | 93% |  |  |
| CC(C)CCSc1nc(N2CCC[C@@H](CC(=O)O)C2)ccc1C(=O)NC1C2CC3CC1CC(O)(C3)C2 (stereo partly drawn) [Example 104, 2-[(3S)-l-[5-[[(2r,5s)-5-hydroxy-2-adamantyl]carbamoyl)-6-(3-methylbutylsulfanyl)pyridin-2-yl]-3-piperidyl]acetic acid] | 87% |  |  |
| O=C(N[C@H]1C2CC3CC1C[C@@](O)(C3)C2)c1ccc(N2CCC[C@H]2C(=O)O)nc1SC1CCCC1 [Example 97, (2S)-1-[6-cyclopentylsulfanyl-5-[((2r,5s)-5-hydroxy-2-adamantyl)carbamoyl]pyridin-2-yl]pyrrolidine-2-carboxylic acid] | 97% |  |  |
| O=C(O)C[C@H]1CCN(c2ccc(C(=O)N[C@H]3C4CC5CC3C[C@](O)(C5)C4)c(SC3CCCCC3)n2)C1 [Example 100, 2-[(3R)-1-[6-cyclohexylsulfanyl-5-[((2r,5s)-5-hydroxy-2-adamantyl)carbamoyl]pyridin-2-yl]pyrrolidin-3-yl]acetic acid] | 92% |  |  |
| O=C(O)C[C@H]1CCN(c2ccc(C(=O)NC3CCCCC3)c(SC3CCCCC3)n2)C1 [Example 57, 2-[(3R)-1-[5-(cyclohexylcarbamoyl)-6-cyclohexylsulfanyl-pyridin-2-yl]pyrrolidin-3-yl]acetic acid] | 97% |  |  |
| O=C(O)C[C@@H]1CCCN(c2ccc(C(=O)NC3CCCCC3)c(N3CCN(S(=O)(=O)c4ccccc4)CC3)n2)C1 [compound 149, 2-[(3S)-1-[6-[4-(benzenesulfonyl)piperazin-1-yl]-5-(cyclohexyl-carbamoyl)pyridin-2-yl]-3-piperidyl]acetic acid] | 83% |  |  |
